Test results as given in publication PMC6272155, “Plasmin Regulation through Allosteric, Sulfated, Small Molecules” (Molecules, 2015).
Where two headings read alike, the source gives them in different places.

Target: T1, human Lys-plasmin (Homo sapiens, UniProt P00747)
T1 construct: purchased Haematologic Technologies (Essex Junction, VT, USA)
Assay: Direct inhibition of human Lys-plasmin, chromogenic substrate (Spectrozyme PL) hydrolysis assay
Assay type: biochemical
Conditions: for inhibition at 400 µM: 400 μM inhibitor, n ≥ 2, read-out: plasmin inhibition in initial screening; for diminished potency relative to 32: 13-atom and 14-atom linkers vs 12-atom linker of 32; for IC50: human plasmin 20 nM, 50 mM Tris-HCl pH 7.4, 150 mM NaCl, 37 °C, Spectrozyme PL; for decrease in inhibition potency relative to 31 and 32, respectively: tetrasulfated flavonoid replaced by para-sulfated quinazolinone
Protocol: Important to emphasize here that the potency of NSGM-based inhibitors was evaluated by measuring their IC50's (X-axis), whereas the efficacy was assessed by measuring the overall change in residual plasmin activity (%) (ΔY = YM − Y0) (Y-axis).
Direct inhibition of human Lys-plasmin was measured using a chromogenic substrate hydrolysis assay on a microplate reader (FlexStation III, Molecular Devices, Sunnyvale, CA, USA), as reported earlier. Briefly, to each well of a 96-well microplate containing 85 µL of 50 mM Tris-HCl buffer, pH 7.4, containing 150 mM NaCl, 0.1% PEG8000, and 0.02% Tween80 at 37 °C was added 5 µL potential NSGM-based inhibitor (20–100 mM aqueous solution) (or vehicle alone) and 5 µL enzyme. The final concentration of the enzyme was 20 nM. After 5 min incubation, 5 µL of 1 mM Spectrozyme PL was rapidly added and the residual enzyme activity was measured from the initial rate of increase in A405. Relative residual enzyme activity (Y) as a function of the concentration of sulfated molecule was fitted using logistic equation 1 to obtain the potency (IC50), efficacy (ΔY) and Hill slope (HS) of inhibition. In this equation, YM and Y0 are the maximal and minimal values of Y: (1) Y = Y0+YM−Y0/1+10^(log[Inhibitor]0 − logIC50) ×HS […]
In this equation, Y is the ratio of residual plasmin activity in the presence of inhibitor to that in its absence (fractional residual activity). YM and Y0 are the maximum and minimum possible values of the fractional residual proteinase activity. The difference between these two values is used to evaluate the inhibitor’s efficacy to reduce the residual enzyme activity under the assay condition.
Direct inhibition of human plasmin by sulfated small molecules. Direct inhibition of plasmin was measured using a chromogenic substrate hydrolysis assay on a microplate reader (FlexStation III, Molecular Devices), as reported earlier. Briefly, to each well of a 96-well microplate containing […]
Tween80 at 37 °C was added 5 µL potential inhibitor (or vehicle alone) and 5 µL enzyme. The final concentration of the enzyme was 20 nM. After 5 min incubation, 5 µL of 1 mM Spectrozyme PL was rapidly added and the residual enzyme activity was measured from the initial rate of increase in A405.
Relative residual enzyme activity (Y, activity in the presence of inhibitor to that in its absence) as a function of the concentration of SPGG derivative was fitted using logistic Equation (1) to obtain the potency (IC50), efficacy (ΔY) and Hill slope (HS) of inhibition. In this equation, YM and Y0 are the maximal and minimal values of Y.

[1] = pH 7.4, read-out: ΔY% (efficacy, YM − Y0), logistic fit, pH 7.4, 37 °C
[2] = pH 7.4, logistic fit, pH 7.4, 37 °C, read-out: ΔY% (efficacy, YM − Y0)
[3] = logistic fit, pH 7.4, 37 °C, read-out: ΔY% (efficacy, YM − Y0)

T1 sequence (P00747 581-810 limits assumed): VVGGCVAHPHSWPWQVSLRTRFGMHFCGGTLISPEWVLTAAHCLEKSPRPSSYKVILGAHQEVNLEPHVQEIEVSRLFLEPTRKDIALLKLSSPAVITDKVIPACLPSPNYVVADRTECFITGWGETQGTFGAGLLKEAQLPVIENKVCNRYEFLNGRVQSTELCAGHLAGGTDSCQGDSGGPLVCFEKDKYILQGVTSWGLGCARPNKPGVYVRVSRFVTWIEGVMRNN
T1 sequence (P00747 97-580 partner limits assumed): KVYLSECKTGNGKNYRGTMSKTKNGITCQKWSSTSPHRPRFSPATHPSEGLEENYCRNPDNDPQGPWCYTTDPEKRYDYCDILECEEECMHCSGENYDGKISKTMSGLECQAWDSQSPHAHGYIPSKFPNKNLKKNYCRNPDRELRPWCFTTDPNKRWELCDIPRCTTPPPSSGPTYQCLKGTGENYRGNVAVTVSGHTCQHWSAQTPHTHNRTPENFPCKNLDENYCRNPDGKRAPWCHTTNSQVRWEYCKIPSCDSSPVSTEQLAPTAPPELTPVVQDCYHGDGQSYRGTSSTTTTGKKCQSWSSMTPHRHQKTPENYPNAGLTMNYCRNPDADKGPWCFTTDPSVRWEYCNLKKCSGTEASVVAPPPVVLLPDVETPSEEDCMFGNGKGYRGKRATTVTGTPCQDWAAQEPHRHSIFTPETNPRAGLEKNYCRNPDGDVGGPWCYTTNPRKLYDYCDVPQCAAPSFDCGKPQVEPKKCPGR

SMILES | IC50 [µM] | HS (Hill slope) (logistic fit, pH 7.4, 37 °C) | Emax [3] [%] | further results
O=S(=O)(O)OC[C@H]1O[C@@](COS(=O)(=O)O)(O[C@H]2O[C@H](COS(=O)(=O)O)[C@@H](OS(=O)(=O)O)[C@H](OS(=O)(=O)O)[C@H]2OS(=O)(=O)O)[C@@H](OS(=O)(=O)O)[C@@H]1OS(=O)(=O)O [compound 17, sucrose octasulfate, reference compound] | – | – | – | inhibition at 400 µM (pH 7.4, 37 °C): ≤ 70%
O=c1c(OS(=O)(=O)O)c(-c2ccc(OS(=O)(=O)O)c(OS(=O)(=O)O)c2)oc2cc(OS(=O)(=O)O)cc(OCc3cn(CCCCCCCCCn4c(-c5ccc(OS(=O)(=O)O)cc5)nc5ccccc5c4=O)nn3)c12 [compound 33] | 128 ± 8 | 1.8 ± 0.4 | – | diminished potency relative to 32: ~ 3 fold; Emax [1]: 89 ± 7%
O=c1c(OS(=O)(=O)O)c(-c2ccc(OS(=O)(=O)O)c(OS(=O)(=O)O)c2)oc2cc(OS(=O)(=O)O)cc(OCc3cn(CCCCCCCCCCn4c(-c5ccc(OS(=O)(=O)O)cc5)nc5ccccc5c4=O)nn3)c12 [compound 34] | 130 ± 6 | 3.9 ± 1.0 | – | diminished potency relative to 32: ~ 3 fold; Emax [1]: 83 ± 5%
O=c1c2ccccc2nc(-c2ccc(OS(=O)(=O)O)cc2)n1Cc1cn(CCn2cc(Cn3c(-c4ccc(OS(=O)(=O)O)cc4)nc4ccccc4c3=O)nn2)nn1 [compound 41] | 125 ± 9 | 4.0 ± 1.8 | – | ΔY% (efficacy, YM − Y0) (logistic fit, pH 7.4, 37 °C): 54 ± 5%; Emax [2]: 54%
O=c1c2ccccc2nc(-c2ccc(OS(=O)(=O)O)cc2)n1CCCCCCCn1cc(Cn2c(-c3ccc(OS(=O)(=O)O)cc3)nc3ccccc3c2=O)nn1 [compound 42] | 161 ± 24 | 1.0 ± 0.2 | 92 ± 4 | decrease in inhibition potency relative to 31 and 32, respectively: 3–4 fold
O=c1c2ccccc2nc(-c2ccc(OS(=O)(=O)O)cc2)n1CCCCCCCCn1cc(Cn2c(-c3ccc(OS(=O)(=O)O)cc3)nc3ccccc3c2=O)nn1 [compound 43] | 183 ± 43 | 1.0 ± 0.3 | 94 ± 21 | decrease in inhibition potency relative to 31 and 32, respectively: 3–4 fold
O=c1c2ccccc2nc(-c2ccc(OS(=O)(=O)O)cc2)n1CCCCCCCCCn1cc(Cn2c(-c3ccc(OS(=O)(=O)O)cc3)nc3ccccc3c2=O)nn1 [compound 44] | 137 ± 11 | 1.0 ± 0.2 | 102 ± 9 | –
O=c1c2ccccc2nc(-c2ccc(OS(=O)(=O)O)cc2)n1CCCCCCCCCCn1cc(Cn2c(-c3ccc(OS(=O)(=O)O)cc3)nc3ccccc3c2=O)nn1 [compound 45] | 98 ± 9 | 1.7 ± 0.6 | 94 ± 6 | –
O=c1c2ccccc2nc(-c2ccc(OS(=O)(=O)O)cc2)n1CCCCCCCCCCCn1cc(Cn2c(-c3ccc(OS(=O)(=O)O)cc3)nc3ccccc3c2=O)nn1 [compound 46] | 111 ± 7 | 2.4 ± 0.4 | 95 ± 2 | –
O=c1c2ccccc2nc(-c2ccc(OS(=O)(=O)O)cc2)n1CCCCCCCCCCCCn1cc(Cn2c(-c3ccc(OS(=O)(=O)O)cc3)nc3ccccc3c2=O)nn1 [compound 47] | 89 ± 7 | 1.9 ± 0.6 | 98 ± 7 | –
O=c1c(OS(=O)(=O)O)c(-c2ccc(OS(=O)(=O)O)c(OS(=O)(=O)O)c2)oc2cc(OS(=O)(=O)O)cc(OCCOc3cc(OS(=O)(=O)O)cc4oc(-c5ccc(OS(=O)(=O)O)c(OS(=O)(=O)O)c5)c(OS(=O)(=O)O)c(=O)c34)c12 [compound 50] | 185 ± 68 | 1.4 ± 0.2 | – | loss in potency relative to 4-atom linker flavonoid homodimers (52, 54): 2 fold; inhibition at 400 µM (pH 7.4, 37 °C): > 90%; ΔY% (efficacy, YM − Y0) (logistic fit, pH 7.4, 37 °C): 38 ± 15%; Emax [2]: 38%
O=c1c(OS(=O)(=O)O)c(-c2ccc(OS(=O)(=O)O)c(OS(=O)(=O)O)c2)oc2cc(OS(=O)(=O)O)cc(OCCCOc3cc(OS(=O)(=O)O)cc4oc(-c5ccc(OS(=O)(=O)O)c(OS(=O)(=O)O)c5)c(OS(=O)(=O)O)c(=O)c34)c12 [compound 51] | ~2830 | – | – | loss in potency relative to 4-atom linker flavonoid homodimers (52, 54): 37 fold
